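Compound exposure: 48 hours, 5 concentrations, 96-well plates. GI50: concentration for 50% inhibition of growth.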 Activity calls are given as the source filed them. Rule as the data show it: active = GI50 up to about 1.1 µM and inactive = higher.

Common to all, as to assay: NCI anticancer screen, dose series, 48 h
Test [1] relates to 786-0.
Test [2] has as its system SK-MEL-5.
Test [3] deals with OVCAR-4.
Test [4] has as its system OVCAR-5.
The subject of test [5] is RPMI-8226.
The test system of test [6] is HCT-116.
For test [7], the system named is KM12.
The test system of test [8] is NCI-H23.
The test system of test [9] is PC-3.
Test [10] relates to M14.
For test [11], the system named is UACC-257.
Test [12] relates to DU-145.
Test [13] relates to SNB-19.
Test [14] relates to NCI-H522.
For test [15], the system named is A498.
The test system of test [16] is HCT-15.
The subject of test [17] is IGROV-1.
In test [18] the test system is T47D.
For test [19], the system named is Malme-3M.
Test [20] concerns NCI-H226.

In the case of `Cc1cccc(C)c1NC(=O)C(Cc1c[nH]c2ccccc12)NC(=O)OCc1ccccc1` (stereo unspecified), the GI50 in test [1] is 20.1 µM (inactive); in test [2], 13.5 µM (inactive); in test [3], 8.04 µM (inactive); in test [4] it was 18.8 µM (inactive); in test [5], 15.6 µM (inactive); in [6], 23.9 µM (inactive). Also, the GI50 in test [7] is 19.6 µM (inactive); in [8] it was 24 µM (inactive); in test [9] it was 12.3 µM (inactive); in test [10], 11.5 µM (inactive); in [11], 14.5 µM (inactive); in test [12] it was 17 µM (inactive). The GI50 in test [13] is 14.9 µM (inactive); in test [14] it was 20.1 µM (inactive); in [15], 21.2 µM (inactive); in test [16], 22.3 µM; in test [17] it was 19.6 µM (inactive); in [18] it was 20.6 µM (inactive). Also, in test [19], the GI50 is 20.1 µM (inactive).
`C/C=C1/CN2CCC34c5ccccc5N(C)C23C2CC1C4(C(=O)OC)C(O)O2` (stereo unspecified): the GI50 in test [1], in test [2], in [3], in test [4], in test [5] and in test [6] was > 100 µM (inactive) in each case. The GI50 in test [7], in test [8], in [9], in test [10], in test [11] and in test [12] was > 100 µM (inactive) in each case. For the same compound, the GI50 was > 100 µM (inactive) in test [13]; > 100 µM (inactive) in test [14]; > 100 µM (inactive) in test [20]; > 100 µM (inactive) in test [15]; more than 100 µM in test [16]; > 100 µM (inactive) in [17]. Also, in [18], the GI50 is > 100 µM (inactive).
As for `Cc1cccc(/C=C2/C(=O)Nc3ccccc32)n1`, the GI50 in test [1] was 13 µM (inactive); in [2] it was 12.9 µM (inactive); in test [3], 23.4 µM (inactive); in [4], 11.9 µM (inactive); in [5], 14.7 µM (inactive); in [6], 12.2 µM (inactive). Besides, the GI50 is 13.2 µM (inactive) in [7]; 10.4 µM (inactive) in test [8]; 16.7 µM (inactive) in test [9]; 15.1 µM (inactive) in [10]; 13.2 µM (inactive) in test [12]; 23.7 µM (inactive) in test [13]. Moreover, the GI50 in test [14] is 12.7 µM (inactive); in test [15] it was 21.3 µM (inactive); in test [16] it was 13.3 µM; in test [18], 4.95 µM (inactive); in test [19], 16.3 µM (inactive).
With `CC(C)=Cc1cc(C)c2c(O)cc(C)c3c2c1C(C)=C(O)C3=O`, the GI50 in test [1] is 25.8 µM (inactive); in test [2], 17.1 µM (inactive); in test [4] it was 28.7 µM (inactive); in test [5] it was 0.0257 µM (active); in [6], 17.7 µM (inactive); in test [7], 20.5 µM (inactive). Besides, the GI50 in test [8] was 23.4 µM (inactive); in test [9], 32.8 µM (inactive); in test [10], 22.4 µM (inactive); in test [11], 36.6 µM (inactive); in test [12], 28.7 µM (inactive); in test [13], 47.4 µM (inactive). Moreover, the GI50 in test [14] was 18.3 µM (inactive); in test [20] it was 21.5 µM (inactive); in test [15], 22.9 µM (inactive); in test [16] it was 23 µM; in test [17], 27.5 µM (inactive); in test [18], 21.2 µM (inactive).
Turning to `COc1ccc2oc(OC)c(CC=C(C)C)c(=O)c2c1C`, the GI50 in [1], in [2], in test [4], in [5], in test [6] and in [7] was > 100 µM (inactive) each time. For the same compound, the GI50 in test [8], in test [9], in test [10], in [11], in test [12] and in test [13] was > 100 µM (inactive) throughout. In addition, the GI50 in [14] is > 100 µM (inactive); in test [20], > 100 µM (inactive); in test [15], > 100 µM (inactive); in [16], more than 100 µM; in test [17] it was > 100 µM (inactive); in test [18] it was > 100 µM (inactive). In test [19], the GI50 was > 100 µM (inactive).
For `COc1ccc(-c2cc(C3CC3)nc(SCC(=O)O)c2C#N)cc1`, the GI50 was > 100 µM (inactive) in test [1]; > 100 µM (inactive) in [2]; 79.8 µM (inactive) in [3]; > 100 µM (inactive) in test [4]; 35.6 µM (inactive) in test [5]; > 100 µM (inactive) in [6]. Further, the GI50 in [7] is > 100 µM (inactive); in [8] it was > 100 µM (inactive); in test [9], 79.8 µM (inactive); in test [10], > 100 µM (inactive); in [11], > 100 µM (inactive); in [12] it was 85.3 µM (inactive). Further, the GI50 was > 100 µM (inactive) in [13]; 25.1 µM (inactive) in test [14]; 82.6 µM (inactive) in test [20]; > 100 µM (inactive) in [15]; 65.8 µM in test [16]; > 100 µM (inactive) in test [17]. For the same compound, the GI50 in test [18] is > 100 µM (inactive).
Take `Cc1c2c(Cl)c3c(c(Cl)c2c(C)c2c(Cl)c4c(c(Cl)c12)C(c1ccccc1)(c1ccccc1)C4(c1ccccc1)c1ccccc1)C(c1ccccc1)(c1ccccc1)C3(c1ccccc1)c1ccccc1`: the GI50 in test [1], in [2], in test [3], in test [4], in [6] and in test [7] was > 100 µM (inactive) each time. Also, the GI50 in test [8], in test [9], in test [10], in [11], in [12] and in test [13] was > 100 µM (inactive) throughout. Moreover, the GI50 in test [14] is > 100 µM (inactive); in test [20] it was > 100 µM (inactive); in test [15] it was > 100 µM (inactive); in test [16], more than 100 µM; in test [17] it was > 100 µM (inactive); in [18], > 100 µM (inactive). Further, in test [19], the GI50 was > 100 µM (inactive).
With `CNc1cc(N)ccc1C(=O)N1CCC[C@H]1CO`, the GI50 in [1], in [4], in [5], in test [6], in test [7] and in test [9] was > 100 µM (inactive) each time. Moreover, the GI50 in [10] is > 100 µM (inactive); in [11] it was > 100 µM (inactive); in test [12] it was > 100 µM (inactive); in test [13], > 100 µM (inactive); in test [14], > 100 µM (inactive); in test [20], 27.3 µM (inactive). Moreover, the GI50 in test [15] was > 100 µM (inactive); in test [16] it was more than 100 µM; in [17], > 100 µM (inactive); in test [18], > 100 µM (inactive).
As to `COc1cc(CCN)c(OC)c(OC)c1`, the GI50 in test [1] is > 100 µM (inactive); in test [2], 23.6 µM (inactive); in test [3] it was > 100 µM (inactive); in test [4] it was > 100 µM (inactive); in test [5], 93.3 µM (inactive); in test [6], 44.4 µM (inactive). For the same compound, the GI50 was > 100 µM (inactive) in test [7]; > 100 µM (inactive) in [8]; > 100 µM (inactive) in test [9]; 58.7 µM (inactive) in [10]; > 100 µM (inactive) in test [11]; > 100 µM (inactive) in test [12]. Also, the GI50 was > 100 µM (inactive) in [13]; > 100 µM (inactive) in test [14]; > 100 µM (inactive) in [15]; more than 100 µM in [16]; > 100 µM (inactive) in test [17]; > 100 µM (inactive) in test [18]. The GI50 in test [19] is > 100 µM (inactive).
On to `CC(=O)Oc1ccc2cc(-c3ccccc3OC(C)=O)c(=O)oc2c1`, for which the GI50 is 25.6 µM (inactive) in test [1]; 18.3 µM (inactive) in [3]; 69 µM (inactive) in [4]; 28.8 µM (inactive) in test [5]; 66.5 µM (inactive) in test [6]; 33.5 µM (inactive) in test [7]. For the same compound, the GI50 in [8] is 31.6 µM (inactive); in test [9], > 100 µM (inactive); in test [10], 51.4 µM (inactive); in [11], > 100 µM (inactive); in test [12] it was 21.7 µM (inactive); in test [13], 46.9 µM (inactive). Further, the GI50 is 4.3 µM (inactive) in test [14]; 27.7 µM (inactive) in test [20]; 40.7 µM (inactive) in test [15]; 33.7 µM in test [16]; 25.7 µM (inactive) in test [18]; 34.3 µM (inactive) in test [19].
For the compound `S=C(S)N1CCN(c2cccc(Cl)c2)CC1`, the GI50 in [1] is 73.1 µM (inactive); in test [2], 27.9 µM (inactive); in [4] it was > 100 µM (inactive); in test [5], 47.4 µM (inactive); in test [6], 41.4 µM (inactive); in test [7], 75.3 µM (inactive). Besides, the GI50 was > 100 µM (inactive) in test [8]; 66.8 µM (inactive) in test [9]; > 100 µM (inactive) in [10]; 85.1 µM (inactive) in test [11]; > 100 µM (inactive) in [12]; > 100 µM (inactive) in [13]. The GI50 in [14] was > 100 µM (inactive); in test [15], > 100 µM (inactive); in test [16], more than 100 µM; in test [17], > 100 µM (inactive); in [18] it was 34.6 µM (inactive); in [19], > 100 µM (inactive).
